In patent US20170266184A1 (priority 2016, published 2017):
Read-outs that look alike come from different tables or passages of the source.

Assays:
[1] = system: humans; details: cited from earlier work
[2] = system: rats
Method: This phase started one day after pre-conditioning phase, animals were randomly assigned to six groups, each containing six animals: (i) buspirone 0 mg/kg+saline, (ii) buspirone 0 mg/kg+morphine, (iii) buspirone 1 mg/kg+saline, (iv) buspirone 1 mg/kg+morphine, (v) buspirone 2 mg/kg+saline and (vi) buspirone 2 mg/kg+morphine injected animals. Over next 12 days (day 1 to day 12) animals went through conditioning (one session per day) in which they were confined to either the horizontal or vertical stripe compartment by raising the respective guillotine door. On day 1, 3, 5, 7, 9 and 11 animals of all groups were injected with saline (1 ml/kg) and placed immediately in the assigned ‘Non-Drug’ compartment for 30 min. After which the animals were kept in their home cages. On every other day, i.e. day 2, 4, 6, 8, 10, and 12 control and test animals were injected with saline, buspirone and/or morphine as assigned above. Immediately after injection the animals were placed in the ‘Drug’ compartment for 30 min. The animals picked from the drug compartment were placed back in their home cages.
Motor behavior was also monitored during conditioning phase. Animals confined to a compartment were moving across the compartment. Activity scores were counted as number of cage crossings for 10 min starting 5 min post injection.

[3] = system: rats; assay: Conditioned place preference (CPP) test of drug-induced reinforcement; type: in vivo, rat
Method: A three compartment conditioned place preference (CPP) apparatus with an unbiased design was used to monitor drug-induced reinforcement. The apparatus was made up of transparent plastic Perspex. The compartments were separated by sliding guillotine doors.
The end (preference) compartments (26×26×26 cm each) provided distinct contexts, with one compartment having black horizontal stripes on side walls, the other compartment had vertical black stripes. […] The experiment was conducted in three distinct phases: pre-conditioning, conditioning and post-conditioning.
An animal introduced in the CPP apparatus from the middle compartment and guillotine doors were raised to open. The animal was allowed to explore the entire apparatus for 10 min. Time spent in each compartment was recorded.
The test was carried out on day 13, one day after the last conditioning session, in a drug free state. Each animal was tested only once. As in the pre-conditioning phase, the guillotine doors were removed and rat was given access to the entire apparatus for 10 min. Time spent in ‘Drug’ assigned compartment was monitored.

[4] = system: rats; remark: listed apart in the source
Method: After post-conditioning the challenge dose of morphine (7.5 mg/kg) was given. The hot plate test was conducted 30 min after challenge dose to measure difference in heat-induced nociception in the six groups. The latency (either jumping or hind-paw licking) and number of licks were monitored for each animal. The temperature of hot plate was kept 52° C. and cutoff time was 30 sec.

[5] = system: rats; details: buspirone and apomorphine co-administered to rats; cited from earlier work
[6] = system: monkeys; details: cited from earlier work
[7] = system: rats; details: fluoxetine with morphine; cited from earlier work
[8] = system: rhesus monkeys; details: fluoxetine with morphine; cited from earlier work
[9] = biological target: T1, 5-HT-1A receptor (Rattus norvegicus, UniProt P19327); details: subcutaneous injection; cited from earlier work
T1 sequence (P19327 1-422): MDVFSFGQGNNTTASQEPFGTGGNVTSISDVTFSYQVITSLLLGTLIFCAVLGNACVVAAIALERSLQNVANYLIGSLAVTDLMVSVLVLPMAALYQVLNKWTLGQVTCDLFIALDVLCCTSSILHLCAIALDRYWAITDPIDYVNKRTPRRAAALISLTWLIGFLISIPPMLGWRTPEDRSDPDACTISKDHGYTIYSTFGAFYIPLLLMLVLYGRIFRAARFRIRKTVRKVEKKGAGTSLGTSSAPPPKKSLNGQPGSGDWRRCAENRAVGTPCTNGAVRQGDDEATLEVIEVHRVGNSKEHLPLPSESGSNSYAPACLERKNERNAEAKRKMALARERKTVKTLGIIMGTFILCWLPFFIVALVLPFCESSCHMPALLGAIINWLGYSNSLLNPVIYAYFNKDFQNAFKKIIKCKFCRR

[10] = biological target: T1, 5-HT-1A receptor; parameters: host or cells: rat, whole animal (in vivo); details: rats; cited from earlier work
[11] = all three doses of morphine vs saline treated animals, FIG. 3

CCNC(C)Cc1cccc(C(F)(F)F)c1 (centres unmarked) [fenfluramine]
Analgesic effects of morphine [1]: increase

CN1CC[C@]23c4c5ccc(O)c4O[C@H]2[C@@H](O)C=C[C@H]3[C@H]1C5 [morphine]
Motor activity ([2]; 1st and 2nd injection of morphine, FIG. 2A): decrease | Decreases in motor activity (tolerance in motor depressant effect) ([2]; 3rd to 6th administration of morphine, day 6, 8, 10 and 12, FIG. 2A): do not occur | Psychosis like effects ([2]; morphine alone, FIG. 2B): produced psychosis like effects | Post-conditioning time spent in the drug paired compartment ([3]; morphine 7.5 mg/kg alone, repeated, FIG. 1A): much higher | Calculated percentage reinforcement ([3]; morphine 7.5 mg/kg alone, FIG. 1B): reinforcing | Increase in latency time in paw licking, comparison of doses ([4]; 7.5 mg/kg vs 5 mg/kg morphine, FIG. 3): greater at 7.5 mg/kg than 5 mg/kg | Latency time in paw licking [4, 11]: increase | Number of licks [4, 11]: reduced | Latency time to first lick ([4]; repeated morphine treated animals, 30 min after 7.5 mg/kg morphine challenge, FIG. 4): reduced | Number of licks ([4]; repeated morphine treated animals, after morphine challenge, FIG. 4): higher

O=C1CC2(CCCC2)CC(=O)N1CCCCN1CCN(c2ncccn2)CC1 [buspirone]
Calculated percentage psychosis like effects of morphine ([2]; animals co-treated with buspirone): blocked | Psychosis like effects of morphine ([2]; co-administration of 1 mg/kg buspirone, FIG. 2B): blocked | Psychosis like effects of morphine ([2]; co-administration of 2 mg/kg buspirone, FIG. 2B): attenuated | Tolerance in motor depressant effects of morphine ([2]; co-treated with buspirone 1 mg/kg or 2 mg/kg, FIG. 2A): not produced | Morphine-induced increases in post-conditioning time spent in drug paired compartment ([3]; buspirone 1 mg or 2 mg/kg co-administered with morphine 7.5 mg/kg, FIG. 1A): significantly attenuates | Reinforcing effects of morphine (calculated percentage reinforcement) ([3]; buspirone 1 mg or 2 mg/kg co-administered with morphine 7.5 mg/kg, FIG. 1B): do not occur | Reduction of addiction to morphine ([3]; buspirone co-injected animals): more than 90% | Analgesic effects of morphine ([4]; buspirone co-injected animals): potentiated | Addiction to apomorphine [5]: not produced

CN(C)CCCN1c2ccccc2CCc2ccc(Cl)cc21 [clomipramine]
Anti-nociceptive effects of opioids [6]: enhances

CNCCC(Oc1ccc(C(F)(F)F)cc1)c1ccccc1 (centres unmarked) [fluoxetine]
Analgesic effects of morphine [1]: increase | Anti-nociceptive effects of morphine [7]: potentiates | Anti-nociceptive effects of morphine [8]: potentiates

CCCN(CCC)C1CCc2cccc(O)c2C1 (centres unmarked) [8-OH-DPAT, 8-hydroxy-N,N-dipropyl-2-aminotetralin]
Analgesic effect [9]: produces an analgesic effect | Anti-nociceptive effects [10]: has anti-nociceptive effects
